Measurements reported in patent US20180077928A1, “INSECT REPELLENT FIBER AND INSECT REPELLENT SCREEN USING SAME” (priority 2015, published 2018).

How the values were obtained:
[1] = Acceptable Daily Intake (ADI) set by WHO and FAO; acceptable intake used in evaluation criteria; set-up: species or system human; details: person/child who weighs 15 kg, calculated from ADI
Description: When the amount of the insect repellent 4 (permethrin) exposed to the surface of the insect repellent fiber 1 is less than 0.4 μg per gram of the insect repellent fiber 1, the insect repellent effect cannot be sufficiently exerted. […] The WHO and FAO (Food and Agriculture Organization of the United Nations) have investigated harmful effects of permethrin to a human body on the basis of a large amount of data obtained by animal tests and the like. According to the investigation results, the amount of permethrin that can be ingested by human over a lifetime without an appreciable health risk, or also referred to as ADI (Acceptable Daily Intake), is set to “0.05 mg/day/kg”. For example, for people who weigh 15 kg (weight of around a child), this value per day is calculated to be 0.75 mg. This means that permethrin of such an amount may be continually ingested without an appreciable health risk. […]
The safety was evaluated according to the following evaluation criteria by assuming a situation that a child who weighs 15 kg licked a whole area of a screen door in which the insect repellent screen having an area of 1 m^2 was installed. […] It is noted that when the insert repellent screen was evaluated as “good”, the insect repellent screen was determined to be safe.

[2] = human, over a lifetime without appreciable health risk; WHO and FAO; cited from earlier work

| Structure (SMILES) | acceptable intake per day [1] | ADI (Acceptable Daily Intake) [2] |
| --- | --- | --- |
| CCOc1ccc(C(C)(C)COCc2cccc(Oc3ccccc3)c2)cc1 [ethofenprox] | 0.45 mg | – |
| CC1(C)C(C=C(Cl)Cl)C1C(=O)OCc1cccc(Oc2ccccc2)c1 (stereo not drawn) [permethrin] | 0.75 mg | 0.05 mg/day/kg |
